The values that follow come from patent publication US20070293512A1, “Condensed Pyrimidine Deriviative and Xanthine Oxidase Inhibitor” (priority 2004, published 2007).

Counter-ions that a name gives are not always drawn.

Series [1] concerns the target T1, Cow milk Xanthine Oxidase (Bos taurus, UniProt P80457).
T1 construct: Cow milk Xanthine Oxidase (Roche); purchased Roche; host or cells: cow milk (natural source)
As to the kind of experiment: Xanthine oxidase inhibition, in vitro (oxidation of xanthine, absorbance at 290 nm). In kind it is biochemical. The note with it: xanthine 250 μM, 50 mM phosphate buffer pH 7.5, 30° C., 10 minutes. Here is the method:
The xanthine oxidase inhibiting action (in vitro test) of the compound of the invention was confirmed by measuring inhibition of oxidation of xanthine by xanthine oxidase, as described in Example 50. As is clear from Tables 11 and 12, the compounds of the invention show excellent xanthine oxidase inhibiting action.
Pharmacological Experiment 1 (In Vitro Measuring Method)
1. Preparation of Test Sample
The test compound was dissolved in dimethylsulfoxide and diluted with 50 mM phosphate buffer (pH 7.5), to give a solution of a predetermined concentration.
125 μL of each of the solutions of the test compound having different concentrations was added to 1 mL of a solution of Xanthine (SIGMA, 250 μM) in the 50 mM phosphor buffer (pH 7.5). The mixture was then pre-incubated at 30° C. for 5 min. Subsequently, to the pre-incubated mixture was added 125 μL of Cow milk Xanthine Oxidase (Roche) diluted with the 50 mM phosphate buffer (pH 7.5) to 70 mU/mL, and the mixture was subjected to reaction at 30° C. for 10 minutes. Then, 1N hydrochloric acid, (200 μL) was added to the reaction mixture to terminate the reaction. Subsequently, absorbance at OD 290 nm was measured by means of a spectrophotometer (Shimadzu UV-160A)., to obtain a inhibition ratio. The measured inhibition ration was used to obtain […]
The inhibition ratio was calculated according to the following formula: Inhibition ratio (%)=[1−(B−C)/(A−C)]×100 • A: absorbance of control • B: absorbance measured on a sample containing test compound • C: absorbance of blank (Test Results)

Series [2] has as its system in-plasma uric acid value. Put plainly: In vivo test: in-plasma uric acid value-inhibition after single oral administration to mouse. The note with it: ICR mouse, blood one hour after administration; for In Vivo (%) TMX-67 (0.3 mg/kg): activity value relative to TMX-67 (0.3 mg/kg), single oral 0.3 mg/kg; for In Vivo (%) allopurinol (3 mg/kg): activity value relative to allopurinol (3 mg/kg), single oral 3 mg/kg. How it is done:
The xanthine oxidase inhibiting action was. further confirmed in vivo tests by measuring the uric acid concentration in a plasma obtained from mouse into which the compound of the invention had been orally administered. See Example 51, Tables 11 and 12.
Pharmacological Experiment 2 (In Vivo Test)
The test compound suspended in 1% methylcellulose solution in an amount of 0.3 mg/kg or 3 mg/kg was administered to unfasted ICR mouse (7 W) by forced single oral administration. The blood was collected from main artery from the mouse under etherization after one hour from the administration. The plasma was separated from the collected blood in the conventional manner. The plasma was then subjected to measurement of uric acid value by the enzyme method by means of an automatic analytical apparatus (7060E), to obtain an in-plasma uric acid value-inhibition ratio in the test sample-administered group as compared with a ratio.obtained in the normal group.
Based on the obtained in-plasma uric acid inhibition ratio, activity values (%) relative to activity values obtained in the simultaneously conducted tests using TMX-67 (0.3 mg/kg) or allopurinol (3 mg/kg).

T1 sequence (P80457 whole entry): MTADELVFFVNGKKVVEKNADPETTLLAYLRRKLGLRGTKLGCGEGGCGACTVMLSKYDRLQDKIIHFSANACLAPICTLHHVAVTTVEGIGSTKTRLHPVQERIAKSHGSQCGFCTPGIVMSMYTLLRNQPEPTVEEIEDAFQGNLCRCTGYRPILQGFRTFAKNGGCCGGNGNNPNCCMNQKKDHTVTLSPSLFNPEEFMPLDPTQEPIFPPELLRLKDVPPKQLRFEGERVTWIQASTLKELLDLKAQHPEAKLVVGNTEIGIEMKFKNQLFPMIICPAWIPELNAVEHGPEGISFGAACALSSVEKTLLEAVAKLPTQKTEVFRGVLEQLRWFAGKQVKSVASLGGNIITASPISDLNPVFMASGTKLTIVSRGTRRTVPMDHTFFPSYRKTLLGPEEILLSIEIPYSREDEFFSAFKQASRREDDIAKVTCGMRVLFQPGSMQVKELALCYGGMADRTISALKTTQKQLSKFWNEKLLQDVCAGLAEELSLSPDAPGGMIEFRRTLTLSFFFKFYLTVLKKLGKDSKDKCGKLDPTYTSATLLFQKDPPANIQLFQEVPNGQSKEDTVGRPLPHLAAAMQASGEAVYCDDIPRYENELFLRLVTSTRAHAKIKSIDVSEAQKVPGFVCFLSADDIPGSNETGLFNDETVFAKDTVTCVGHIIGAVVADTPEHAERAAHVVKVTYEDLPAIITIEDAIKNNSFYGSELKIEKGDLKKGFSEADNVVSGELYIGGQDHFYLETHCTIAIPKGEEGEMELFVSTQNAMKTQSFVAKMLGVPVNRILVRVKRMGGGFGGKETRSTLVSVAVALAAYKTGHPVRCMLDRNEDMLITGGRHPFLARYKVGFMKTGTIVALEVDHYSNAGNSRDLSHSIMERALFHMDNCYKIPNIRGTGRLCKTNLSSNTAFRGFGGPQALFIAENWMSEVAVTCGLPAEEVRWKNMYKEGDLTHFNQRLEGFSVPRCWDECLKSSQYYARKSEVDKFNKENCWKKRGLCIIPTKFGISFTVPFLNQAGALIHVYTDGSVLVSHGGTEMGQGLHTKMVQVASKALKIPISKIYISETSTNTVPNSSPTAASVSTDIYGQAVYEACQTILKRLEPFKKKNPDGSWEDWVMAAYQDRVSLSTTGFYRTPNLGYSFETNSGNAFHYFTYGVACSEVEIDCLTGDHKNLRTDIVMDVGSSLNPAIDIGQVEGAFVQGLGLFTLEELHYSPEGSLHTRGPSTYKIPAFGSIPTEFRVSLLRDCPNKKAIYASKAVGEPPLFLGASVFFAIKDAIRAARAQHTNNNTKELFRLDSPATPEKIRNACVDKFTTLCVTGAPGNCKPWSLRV

For orientation: IC50 means the concentration that inhibits the measured activity by half. Higher therefore signals weaker potency in that assay. For the compound `N#Cc1cc(-c2nc3c(O)ncnc3s2)ccc1Oc1ccc(Cl)cc1` [Example 23, 2-[4-(4-Chlorophenoxy)-3-cyanophenyl]-4-hydroxythiazolo[5,4-d]pyrimidine], the IC50 in series [1] worked out at 27 nM.
`O=[N+]([O-])c1cc(-c2nc3c(O)ncnc3s2)ccc1Oc1ccc(O)cc1` [Example 35, 4-Hydroxy-2-[4-(4-hydroxyphenoxy)-3-nitro-phenyl]thiazolo[5,4-d]pyrimidine]: the “In Vivo (%) TMX-67 (0.3 mg/kg)” value in series [2] is listed as 61%.
“2-[3-Cyano-4-(2-fluorophenoxy)phenyl]-4-hydroxythiazolo[5,4-d]pyrimidine potassium salt [Example 46]” had an IC50 in series [1] of 17.7 nM. In series [2], the “In Vivo (%) TMX-67 (0.3 mg/kg)” value was found to be 223%.
As a reminder, the melting point is the temperature of the solid-liquid transition. Consider `O=[N+]([O-])c1cc(-c2nc3c(O)ncnc3s2)ccc1Oc1ccccc1` [Example 7, 4-Hydroxy-2-(3-nitro-4-phenoxyphenyl)-thiazolo[5,4-d]pyrimidine], for which the melting point is 278 to 281 °C (dec.). Also, the IC50 in series [1] is 8.8 nM.
“2-[4-(4-Chlorophenoxy)-3-cyanophenyl]-4-hydroxythiazolo[5,4-d]pyrimidine potassium salt [Example 24]”: in series [1], the IC50 was found to be 18.5 nM. Moreover, the “In Vivo (%) TMX-67 (0.3 mg/kg)” value in series [2] is recorded as 28%.
Take `O=[N+]([O-])c1cc(-c2nc3c(O)ncnc3o2)ccc1Sc1ccc(Cl)cc1` [Example 6, 2-[4-(4-Chlorophenylthio)-3-nitrophenyl]-4-hydroxyoxazolo[5,4-d]pyrimidine]: the melting point was more than 250 °C. In addition, the IC50 in series [1] was 30.2 nM.
Regarding `COc1ccc(Oc2ccc(-c3nc4c(O)ncnc4s3)cc2[N+](=O)[O-])cc1` [Example 14, 2-[4-(4-Methoxyphenoxy)-3-nitrophenyl]-4-hydroxythiazolo[5,4-d]pyrimidine], the IC50 in series [1] was 8.5 nM.
`O=C(O)c1ccc(Oc2ccc(-c3nc4c(O)ncnc4s3)cc2[N+](=O)[O-])cc1` [Example 26, 2-[4-(4-Carboxyphenoxy)-3-nitrophenyl]-4-hydroxythiazolo[5,4-d]pyrimidine] displayed an IC50 in series [1] of 9.7 nM.
On to `O=[N+]([O-])c1cc(-c2nc3c([O-])ncnc3s2)ccc1Oc1ccc(F)cc1.[K+]` [Example 13, 2-[4-(4-Fluorophenoxy)-3-nitrophenyl]-4-hydroxythiazolo[5,4-d]pyrimidine potassium salt], for which, in series [2], the “In Vivo (%) TMX-67 (0.3 mg/kg)” value was 141%.
As to `O=C([O-])c1ccc(Oc2ccc(-c3nc4c([O-])ncnc4s3)cc2[N+](=O)[O-])cc1.[K+].[K+]` [Example 27, 2-[4-(4-Carboxyphenoxy)-3-nitrophenyl]-4-hydroxythiazolo[5,4-d]pyrimidine dipotassium salt], the “In Vivo (%) allopurinol (3 mg/kg)” value in series [2] stood at 36%.
In turn, `O=[N+]([O-])c1cc(-c2nc3c(O)ncnc3s2)ccc1Oc1ccc(Oc2ccccc2)cc1` [Example 28, 2-[3-Nitro-4-(4-phenoxyphenoxy)phenyl]-4-hydroxythiazolo[5,4-d]pyrimidine] had an IC50 in series [1] of 67.6 nM.
“2-[4-(4-Chlorophenylthio)-3-cyanophenyl]-4-hydroxythiazolo[5,4-d]pyrimidine potassium salt [Example 10]” showed an IC50 in series [1] of 22.6 nM. Also, the “In Vivo (%) TMX-67 (0.3 mg/kg)” value in series [2] was determined as 84%.
`O=[N+]([O-])c1cc(-c2nc3c(O)ncnc3s2)ccc1Nc1ccccc1` [Example 29, 2-(3-Nitro-4-phenylaminophenyl)-4-hydroxy-thiazolo[5,4-d]pyrimidine] came in with an IC50 in series [1] of 24.6 nM.
In series [1], `CC(C)c1ccc(Oc2ccc(-c3nc4c(O)ncnc4s3)cc2[N+](=O)[O-])cc1` [Example 30, 4-Hydroxy-2-[4-(4-isopropylphenoxy)-3-nitro-phenyl]thiazolo[5,4-d]pyrimidine] yielded an IC50 of 119 nM.
On to `O=[N+]([O-])c1cc(-c2nc3c([O-])ncnc3s2)ccc1Oc1ccccc1.[K+]` [Example 8, 2-(3-Nitro-4-phenoxyphenyl)-4-hydroxythia-zolo[5,4-d]pyrimidine potassium salt], for which the “In Vivo (%) TMX-67 (0.3 mg/kg)” value in series [2] is on record as 125%.
In turn, `O=[N+]([O-])c1cc(-c2nc3c(O)ncnc3s2)ccc1Oc1ccc(-c2ccccc2)cc1` [Example 31, 4-Hydroxy-2-[3-nitro-4-(4-phenylphenoxy)-phenyl]thiazolo[5,4-d]pyrimidine] yielded an IC50 in series [1] of 36.8 nM.
`N#Cc1cc(-c2nc3c(O)ncnc3s2)ccc1Sc1ccc(Cl)cc1` [Example 9, 2-[4-(4-Chlorophenylthio)-3-cyanophenyl]-4-hydroxythiazolo[5,4-d]pyrimidine] gave an IC50 in series [1] of 14.6 nM.
Take `COC(=O)c1ccc(Oc2ccc(-c3nc4c(O)ncnc4s3)cc2[N+](=O)[O-])cc1` [Example 25, 4-Hydroxy-2-[4-(4-methoxycarbonylphenoxy)-3-nitrophenyl]thiazolo[5,4-d]pyrimidine]: the IC50 in series [1] was determined as 18.7 nM.
Consider `N#Cc1cc(-c2nc3c([O-])ncnc3s2)ccc1Sc1ccc(F)cc1.[K+]` [Example 43, 2-[3-Cyano-4-(4-fluorophenylthio)phenyl]-4-hydroxythiazolo[5,4-d]pyrimidine potassium salt], for which, in series [2], the “In Vivo (%) TMX-67 (0.3 mg/kg)” value is listed as 185%.
In series [1], `O=[N+]([O-])c1cc(-c2nc3c(O)ncnc3s2)ccc1Oc1ccc(C(F)(F)F)cc1` [Example 16, 4-Hydroxy-2-[3-nitro-4-[4-(trifluoromethyl)-phenoxy]phenyl]thiazolo[5,4-d]pyrimidine] returned an IC50 of 52.6 nM.
Take `N#Cc1cc(-c2nc3c([O-])ncnc3s2)ccc1Oc1ccccc1.[K+]` [Example 49, 2-(3-Cyano-4-phenoxyphenyl)-4-hydroxy-thiazolo[5,4-d]pyrimidine potassium salt]: half-maximal inhibition in series [1] (IC50) required 10.8 nM. For the same compound, in series [2], the “In Vivo (%) TMX-67 (0.3 mg/kg)” value came to 140%.
`O=[N+]([O-])c1cc(-c2nc3c(O)ncnc3s2)ccc1Oc1ccc(Cl)c2ccccc12` [Example 11, 2-[4-(4-Chloro-1-naphthoxy)-3-nitrophenyl]-4-hydroxythiazolo[5,4-d]pyrimidine] showed an IC50 in series [1] of 51.9 nM.
Same read-out and setting: then `O=[N+]([O-])c1cc(-c2nc3c(O)ncnc3o2)ccc1Oc1ccc(F)cc1` [Example 39, 2-[4-(4-Fluorophenoxy)-3-nitrophenyl]-4-hydroxyoxazolo[5,4-d]pyrimidine potassium salt], with 13.5 nM; and `O=[N+]([O-])c1cc(-c2nc3c(O)ncnc3s2)ccc1Oc1ccccc1F` [Example 21, 2-[4-(2-Fluorophenoxy)-3-nitrophenyl]-4-hydroxythiazolo[5,4-d]pyrimidine], with 5.4 nM; and `O=[N+]([O-])c1cc(-c2nc3c(O)ncnc3s2)ccc1Sc1ccccc1` [Example 4, 4-Hydroxy-2-(3-nitro-4-phenylthiophenyl)thiazolo[5,4-d]pyrimidine], with 18.6 nM.
`O=[N+]([O-])c1cc(-c2nc3c(O)ncnc3s2)ccc1Sc1ccc(Cl)cc1` [Example 2, 2-[4-(4-Chlorophenylthio)-3-nitrophenyl]-4-hydroxythiazolo[5,4-d]pyrimidine] came in with a 50% inhibitory concentration (IC50) in series [1] of 13.8 nM.
Turning to `COc1ncnc2sc(-c3ccc(Oc4ccc(F)cc4)c(C#N)c3)nc12` [Example 40, 2-[3-Cyano-4-(4-fluorophenoxy)phenyl]-4-methoxythiazolo[5,4-d]pyrimidine], in series [2], the “In Vivo (%) TMX-67 (0.3 mg/kg)” value is 30% and the “In Vivo (%) allopurinol (3 mg/kg)” value is recorded as 107%.
`O=[N+]([O-])c1cc(-c2nc3c(O)ncnc3s2)ccc1Oc1cccc(Cl)c1` [Example 17, 2-[4-(3-Chlorophenoxy)-3-nitrophenyl]-4-hydroxythiazolo[5,4-d]pyrimidine] gave an IC50 in series [1] of 16.8 nM.
In the case of “2-[3-Cyano-4-(4-fluorophenoxy)phenyl]-4-hydroxythiazolo[5,4-d]pyrimidine potassium salt [Example 37]”, the “In Vivo (%) TMX-67 (0.3 mg/kg)” value in series [2] is recorded as 107%.
The compound `O=[N+]([O-])c1cc(-c2nc3c(O)ncnc3s2)ccc1Sc1ccc(Cl)cc1` [Example 3, 2-[4-(4-Chlorophenylthio)-3-nitrophenyl]-4-hydroxythiazolo[5,4-d]pyrimidine potassium salt] returned an IC50 in series [1] of 19.2 nM.
`O=[N+]([O-])c1cc(-c2nc3c(O)ncnc3s2)ccc1Oc1cccnc1.[K]` [Example 33, 4-Hydroxy-2-[3-nitro-4-(3-pyridyloxy)-phenyl]thiazolo[5,4-d)pyrimidine potassium salt]: the “In Vivo (%) TMX-67 (0.3 mg/kg)” value in series [2] came out at 48%.
